# Tested on: HCV replicon, genotype 1a Y93H variant with tyrosine 93 changed to histidine in the NS5A protein
# Test: not given
# Assay type: cell-based, HCV genotype 1a
# Conditions: test compound titrated in combination with a fixed 200 nM compound N47; genotype 1a Y93H replicon
# Experimental: Combinations can be examined for synergistic activity using a variety of putative NS5A-targeting compounds and a variety of test compounds. […] The test compound can be chosen from compounds exemplified below, which were prepared by methods known in the art, or from others disclosed in the literature.
# Similarly, BMS-790052 can be tested singly and in combination with a fixed amount of compound N47 in the HCV replicon cell based assay consisting of the genotype 1a Y93H variant with tyrosine 93 changed to histidine in the NS5A protein.
row,SMILES,Fold-Synergistic G-1a (Y93H)
1,CN(C)[C@@H](C(=O)N1CCCC[C@H]1c1ncc(-c2ccc(-c3ccc(-c4cnc([C@@H]5CCCCN5C(=O)[C@@H](c5ccccc5)N(C)C)[nH]4)cc3)cc2)[nH]1)c1ccccc1,<10 Fold
2,COC(=O)N[C@H](C(=O)N1CCC[C@H]1c1nc2cc(C#Cc3ccc4[nH]c([C@@H]5CCCN5C(=O)[C@@H](NC(=O)OC)C(C)C)nc4c3)ccc2[nH]1)C(C)C,<10 Fold

# Tested on: HCV replicon, genotype-1a variant with glutamine 30 changed to glutamate in the NS5A protein
# Test: microbe, parasite or virus in culture
# Assay type: cell-based, HCV genotype 1a
# Conditions: HCV replicon genotype 1a Q30E (Q→E) variant; test compound titrated with an NS5A-targeting compound (BMS-790052 fixed at 200 nM); ranking of synergist activity
# Method in brief: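 Synergy was assessed by combining several fixed amounts of an NS5A-targeting compound with a titration of the second compound of interest.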
row,SMILES,Fold-Synergistic 1a (Q30E)
1,CC(C)CC(=O)NC1(c2nc(-c3ccc(-c4ccc(-c5c[nH]c(C6(NC(=O)CC(C)C)CC6)n5)cc4)cc3)c[nH]2)CC1 [Compound N-21],<10 fold
2,CC(C)(C)[C@H](NC(=O)C1CCN(c2cccc(C#N)c2)C1=O)c1nc(-c2ccc(-c3ccc(-c4c[nH]c([C@@H](NC(=O)C5CCN(c6cccc(C#N)c6)C5=O)C(C)(C)C)n4)cc3)cc2)c[nH]1 (some centres unmarked) [Compound S-291],>100 fold
3,CC(C)(C(=O)N[C@H](c1nc(-c2ccc(-c3ccc(-c4c[nH]c([C@@H](NC(=O)C(C)(C)C(=O)N5CC6CC6C5)C(C)(C)C)n4)cc3)cc2)c[nH]1)C(C)(C)C)C(=O)N1CC2CC2C1 (some centres unmarked) [Compound W-153],>100 fold
4,CC1(OC(=O)N2C[C@H](F)C[C@H]2C(=O)N[C@H](c2nc(-c3ccc(-c4ccc(-c5c[nH]c([C@@H](NC(=O)[C@@H]6C[C@@H](F)CN6C(=O)OC6(C)CC6)C(C)(C)C)n5)cc4)cc3)c[nH]2)C(C)(C)C)CC1 [Compound W-119],>100 fold
5,CC(C)(C)[C@H](NC(=O)C1CC(=O)N(c2ccccc2O)C1)c1nc(-c2ccc(-c3ccc(-c4c[nH]c([C@@H](NC(=O)C5CC(=O)N(c6ccccc6O)C5)C(C)(C)C)n4)cc3)cc2)c[nH]1 (some centres unmarked) [Compound S-265],>100 fold
6,CC(C)(NCC(F)(F)F)C(=O)N[C@H](c1nc(-c2ccc(-c3ccc(-c4c[nH]c([C@@H](NC(=O)C(C)(C)NCC(F)(F)F)C(C)(C)C)n4)cc3)cc2)c[nH]1)C(C)(C)C [Compound L-50],>100 fold
7,CC(C)(C)OC(=O)N1[C@@H]2CC[C@@H](C2)[C@H]1C(=O)N[C@H](c1nc(-c2ccc(-c3ccc(-c4c[nH]c([C@@H](NC(=O)[C@@H]5[C@H]6CC[C@H](C6)N5C(=O)OC(C)(C)C)C(C)(C)C)n4)cc3)cc2)c[nH]1)C(C)(C)C [Compound W-121],>100 fold
8,CC(C)(C)[C@H](NC(=O)C12CCC(O)(CC1)CC2)c1nc(-c2ccc(-c3ccc(-c4c[nH]c([C@@H](NC(=O)C56CCC(O)(CC5)CC6)C(C)(C)C)n4)cc3)cc2)c[nH]1 [Compound W-128],>100 fold
9,CO[C@H]1C[C@@H](C(=O)N[C@H](c2nc(-c3ccc(-c4ccc(-c5c[nH]c([C@@H](NC(=O)[C@@H]6C[C@H](OC)CN6C(=O)OC(C)(C)C)C(C)(C)C)n5)cc4)cc3)c[nH]2)C(C)(C)C)N(C(=O)OC(C)(C)C)C1 [Compound W-115],>100 fold
10,CC(C)(C)C(=O)N[C@H](c1nc(-c2ccc(-c3cnc(-c4c[nH]c([C@@H](NC(=O)C(C)(C)C)C(C)(C)C)n4)cn3)cc2)c[nH]1)C(C)(C)C [Compound N-105],>100 fold
11,CN(C(=O)C(C)(C)C(=O)N[C@H](c1nc(-c2ccc(-c3ccc(-c4c[nH]c([C@@H](NC(=O)C(C)(C)C(=O)N(C)C5CC5)C(C)(C)C)n4)cc3)cc2)c[nH]1)C(C)(C)C)C1CC1 [Compound W-140],<10 fold
12,COC(C)(C)[C@H](NC(=O)C(C)(C)CF)c1nc(-c2ccc(-c3ccc(-c4c[nH]c([C@@H](NC(=O)C(C)(C)CF)C(C)(C)OC)n4)cc3)cc2)c[nH]1 [Compound P-10],>100 fold
13,CC(C)(C(=O)N[C@H](c1nc(-c2ccc(-c3ccc(-c4c[nH]c([C@@H](NC(=O)C(C)(C)C(=O)N5CC6CCC(C5)O6)C(C)(C)C)n4)cc3)cc2)c[nH]1)C(C)(C)C)C(=O)N1CC2CCC(C1)O2 [Compound W-145],>10 fold
14,CC(C)(C)[C@H](NC(=O)[C@@H]1CCC(=O)N1)c1nc(-c2ccc(-c3ccc(-c4c[nH]c([C@@H](NC(=O)[C@@H]5CCC(=O)N5)C(C)(C)C)n4)cc3)cc2)c[nH]1 [Compound L-10],>10 fold
15,CC(C)(OCC(F)F)C(=O)N[C@H](c1nc(-c2ccc(-c3ccc(-c4c[nH]c([C@@H](NC(=O)C(C)(C)OCC(F)F)C5(C)CC5)n4)cc3)cc2)c[nH]1)C1(C)CC1 [Compound Y-64],>100 fold
16,CN(C)C(=O)C(=O)N[C@H](c1nc(-c2ccc(-c3ccc(-c4c[nH]c([C@@H](NC(=O)C(=O)N(C)C)C(C)(C)C)n4)cc3)cc2)c[nH]1)C(C)(C)C [Compound W-10],>100 fold
17,CC(C)(C)[C@H](NC(=O)C1CC2(C1)OCCO2)c1nc(-c2ccc(-c3ccc(-c4c[nH]c([C@@H](NC(=O)C5CC6(C5)OCCO6)C(C)(C)C)n4)cc3)cc2)c[nH]1 (some centres unmarked) [Compound W-178],>100 fold

row,SMILES,Fold-Synergistic 1a (Q30E)
1,COC(C)(C)[C@H](NC(=O)C(C)(C)C)c1nc(-c2ccc(-c3ccc(-c4c[nH]c([C@@H](NC(=O)C(C)(C)C)C(C)(C)OC)n4)cc3)cc2)c[nH]1 [Compound P-9],>100 fold
2,CC(C)(C)[C@H](NC(=O)C1CCCOC1)c1nc(-c2ccc(-c3ccc(-c4c[nH]c([C@@H](NC(=O)C5CCCOC5)C(C)(C)C)n4)cc3)cc2)c[nH]1 (some centres unmarked) [Compound W-131],>100 fold
3,CC(C)(C)[C@H](NC(=O)[C@@H]1C[C@@H](F)CN1C(=O)C1CC1)c1nc(-c2ccc(-c3ccc(-c4c[nH]c([C@@H](NC(=O)[C@@H]5C[C@@H](F)CN5C(=O)C5CC5)C(C)(C)C)n4)cc3)cc2)c[nH]1 [Compound W-104],>100 fold
4,CC(C)(C)[C@H](NC(=O)C1(N2CCOC2=O)CC1)c1nc(-c2ccc(-c3ccc(-c4c[nH]c([C@@H](NC(=O)C5(N6CCOC6=O)CC5)C(C)(C)C)n4)cc3)cc2)c[nH]1 [Compound L-26],>100 fold
5,O=C([C@H]1CCCO1)N1CCC[C@H]1c1ncc(-c2ccc(-c3ccc(-c4cnc([C@@H]5CCCN5C(=O)[C@H]5CCCO5)[nH]4)cc3)cc2)[nH]1 [Compound S-111],<10 fold
6,COC(=O)N1CCC[C@@]1(C)C(=O)N[C@H](c1nc(-c2ccc(-c3ccc(-c4c[nH]c([C@@H](NC(=O)[C@]5(C)CCCN5C(=O)OC)C(C)(C)C)n4)cc3)cc2)c[nH]1)C(C)(C)C [Compound L-23],>100 fold
7,CC(C)(C)OC(=O)N1CC(F)(F)C[C@H]1C(=O)N[C@H](c1nc(-c2ccc(-c3ccc(-c4c[nH]c([C@@H](NC(=O)[C@@H]5CC(F)(F)CN5C(=O)OC(C)(C)C)C(C)(C)C)n4)cc3)cc2)c[nH]1)C(C)(C)C [Compound W-88],>100 fold
8,CC(C)(C)[C@H](NC(=O)C(=O)N1CCC(F)(F)C1)c1nc(-c2ccc(-c3ccc(-c4c[nH]c([C@@H](NC(=O)C(=O)N5CCC(F)(F)C5)C(C)(C)C)n4)cc3)cc2)c[nH]1 [Compound W-22],>100 fold
9,CC(C)(C)[C@H](NC(=O)C1CCC(F)(F)C1)c1nc(-c2ccc(-c3ccc(-c4c[nH]c([C@@H](NC(=O)C5CCC(F)(F)C5)C(C)(C)C)n4)cc3)cc2)c[nH]1 (some centres unmarked) [Compound N-111A],>100 fold
10,CC(C)(C)[C@H](NC(=O)CC1CCOC2(CC2)C1)c1nc(-c2ccc(-c3ccc(-c4c[nH]c([C@@H](NC(=O)CC5CCOC6(CC6)C5)C(C)(C)C)n4)cc3)cc2)c[nH]1 (stereo partly drawn) [Compound L-75],>100 fold
11,COC(C)(C)C(=O)N[C@H](c1nc(-c2ccc(-c3ccc(-c4c[nH]c([C@@H](NC(=O)C(C)(C)OC)C(C)C)n4)cn3)cc2)c[nH]1)C(C)C [Compound N-102],>100 fold
12,CC(C)(C)[C@H](NC(=O)C(=O)N1CCCCCC1)c1nc(-c2ccc(-c3ccc(-c4c[nH]c([C@@H](NC(=O)C(=O)N5CCCCCC5)C(C)(C)C)n4)cc3)cc2)c[nH]1 [Compound W-32],>100 fold
13,CC(C)(C)[C@H](NC(=O)C(O)(C1CC1)C1CC1)c1nc(-c2ccc(-c3ccc(-c4c[nH]c([C@@H](NC(=O)C(O)(C5CC5)C5CC5)C(C)(C)C)n4)cc3)cc2)c[nH]1 [Compound P-169],>100 fold
14,COC12CCC(C(=O)N[C@H](c3nc(-c4ccc(-c5ccc(-c6c[nH]c([C@@H](NC(=O)C78CCC(OC)(CC7)CC8)C(C)(C)C)n6)cc5)cc4)c[nH]3)C(C)(C)C)(CC1)CC2 [Compound S-293],>100 fold
15,CC1([C@H](NC(=O)[C@@]2(C)CCC(F)(F)CO2)c2nc(-c3ccc(-c4ccc(-c5c[nH]c([C@@H](NC(=O)[C@@]6(C)CCC(F)(F)CO6)C6(C)CC6)n5)cc4)cc3)c[nH]2)CC1 [Compound Y-81],>100 fold
16,Cc1cc(-c2ccc(-c3c[nH]c([C@@H](NC(=O)C4(C)CCCCC4)C(C)C)n3)cc2)ccc1-c1c[nH]c([C@@H](NC(=O)C2(C)CCCCC2)C(C)C)n1 [Compound N-79],>100 fold

# Same assay, conditions: Hepatitis C virus; genotype 1a Q30E replicon; BMS-790052 fixed at 200 nM; read-out: EC50 of P-55 in the presence of a fixed amount of BMS-790052
row,SMILES,EC50
1,CC(C)CC(=O)N[C@H](c1ncc(-c2ccc(-c3ccc(-c4cnc([C@@H](NC(=O)CC(C)C)C(C)C)[nH]4)cc3)cc2)[nH]1)C(C)C [Compound P-55],~2 nM

# Same assay, conditions: Hepatitis C virus; genotype 1a Q30E replicon; compound alone; read-out: EC50, titrated singly
row,SMILES,EC50
1,CC(C)CC(=O)N[C@H](c1ncc(-c2ccc(-c3ccc(-c4cnc([C@@H](NC(=O)CC(C)C)C(C)C)[nH]4)cc3)cc2)[nH]1)C(C)C [Compound P-55],> 200 nM

# Same assay, conditions: genotype 1a Q30E replicon; P-55 titrated with 200 nM BMS-790052
row,SMILES,synergistic inhibitory effect with the combination
1,CC(C)CC(=O)N[C@H](c1ncc(-c2ccc(-c3ccc(-c4cnc([C@@H](NC(=O)CC(C)C)C(C)C)[nH]4)cc3)cc2)[nH]1)C(C)C [Compound P-55],> 100 fold
